Data published in ChEMBL document CHEMBL1140399, “Synthesis and evaluation of 3-anilino-quinoxalinones as glycogen phosphorylase inhibitors” (Bioorg Med Chem Lett, 2005).

How the values were obtained:
Mus musculus [1] = test: Blood glucose levels in mice was measured using glucometer after 0 hours of compound administration at 30 mg/kg body weight via oral gavage
Mus musculus [2] = test: Blood glucose levels in mice was measured using glucometer after 1 hours of compound administration at 30 mg/kg body weight via oral gavage
Mus musculus [3] = test: Blood glucose levels in mice was measured using glucometer after 4 hours of compound administration at 30 mg/kg body weight via oral gavage
Mus musculus [4] = test: Blood glucose levels in mice was measured using glucometer after 8 hours of compound administration at 30 mg/kg body weight via oral gavage
Mus musculus [5] = test: Blood glucose levels in mice was measured using glucometer after 2 hours of compound administration at 30 mg/kg body weight via oral gavage

SMILES	Blood glucose level (Mus musculus [1])	Blood glucose level (Mus musculus [2])	Blood glucose level (Mus musculus [3])	Blood glucose level (Mus musculus [4])	Blood glucose level (Mus musculus [5])
CCn1c(=O)c(Nc2ccc(C(=O)NCc3cccs3)cc2)nc2ccccc21	320.3	349.1	383.3	325.9	338.4
Cn1c(=O)c(Nc2ccc(C(=O)NCc3cccs3)cc2)nc2ccccc21	334	306.4	313.3	224.9	351.3
Cn1c(=O)c(Nc2ccc(C(=O)NCc3cccs3)cc2)nc2cccnc21	357.4	305.4	362.5	328.4	356
